Reference: patent US7790171B1, “Antiviral peptides obtained from the tryptophan-rich hydrophobic cluster of the HIV-1 reverse transcriptase” (priority 2000, dated 2010)
Where no end group is shown, it is not given here.

Assays:
CEM cells = experiment: Toxicity in CEM cells; format: cell-based, human
[1] = system: HIV-2 ROD, EHO (clades A and B); experiment: β-gal activity assay in MAGIC-5 cells, HIV-2 isolates; format: cell-based; details: MAGIC5 cells, β-gal activity day 3
Protocol: (§1) FIG. 2: Effect of MPG/p7 (SEQ ID NO:1) on replication of different subtypes of HIV-1 and HIV-2 studied using MAGIC5 cells. MAGIC-5 cells were incubated with 50 μl of stock HIV preparation corresponding to 1000×TCID50/ml. a, HIV-1 BRU; b, HIV-1 RF; c, HIV-1 SF2 (FIG. 2.A); d, HIV-1 NDK; e, HIV-1 ELI; f, HIV-2 ROD; g, HIV-2 EHO (FIG. 2.B) in medium alone (lane 2), medium supplemented with AZT (10^−5 M) (lane 3), MPG/p7 at 10^−7 and 10^−8 M (lane 4 and 5 respectively), or MPG/p237 (SEQ ID NO:5) at 10^−6 M (lane 6) additive. After 3 days in culture, 13-gal activity was evaluated in cell lysates by measuring absorbance at 410 nm. β-gal activity in uninfected MAGIC5 cells was measured as control (lane 1). […] The calculated values represent means of duplicate. […]
(§2) β-gal activity assay. […] After 3 days in culture, cells were lysed and β-gal activity was determined by incubating 200 μl of total cellular extracts for 1 hat 37° C. in 1.5 ml buffer containing 80 mM NA2HPO4, 10 mM MgCl2, 1 mM 2 ME and 6 mM o-nitrophenyl β-D-galactopyranoside (ONPG). β-gal activity was evaluated by measuring absorbance at 410 nm.
(§3) The efficiency of MPG/p7 monitored using the previously described MAGIC5 transfectant cells that express surface CD4, CXCR4 and CCR5 receptors and contain a reporter gene under control of an HIV-1 promoter that can be induced upon infection of the cells. […]

HIV-1 RTMC = experiment: β-gal activity assay in MAGIC-5 cells, HIV-1 RTMC; format: cell-based
Protocol: (§4) FIG. 3: Effect of MPG/p7 (SEQ ID NO:1) on replication of reference escape variant viruses. MAGIC-5 cells were incubated with 50 μl of stock HIV preparation corresponding to 1000×TCID50/ml of a, HIV-1 BRU; b, HIV-1 RTMF; c, HIV-1 RTMC; d, HIV-1 74V (FIG. 3.A); e, HIV-1 N119; f, HIV-1 RTMDR1 (FIG. 3.B), in medium alone (lane 2) or medium supplemented with AZT at 10^−5 M, 10^−6 M, 10^−7 M, 10^−8 M, 10^−9 M, and 10^−10 M (lanes 3 to 8 respectively), MPG/p7 at 10^−8 and 10^−7M (lanes 9 and 10), or MPG/p237 at 10^−6M (lane 11) additive. β-gal activity was evaluated on day 3 after virus exposure. β-gal activity in uninfected MAGIC5 cells was measured as control (lane 1). All results have been normalized (see legend of FIG. 2). The calculated values represent means of duplicate. Each figure is representative of at least three independent experiments.
as §2

[2] = biological target: HIV-1 RT dimerization (p66/p51) (Human immunodeficiency virus type 1 group M subtype B, UniProt P03366); details: cited from earlier work
HIV-1 BRU [3] = details: cited from earlier work
HIV-2 ROD = experiment: RT activity assay of viral production in HIV-2 ROD-infected CEM cells; format: cell-based
Protocol: (§5) FIG. 1: Effect of different concentrations of MPG/p7 (SEQ ID NO:1) on HIV-1 and HIV-2 in CEM cell cultures. CEM cells exposed to 100 μl of viral suspensions containing 1000×50% tissue culture infective dose (TCID50)/m1 of HIV-1 BRU (left panels) or HIV-2 ROD (right panels). a, HIV-infected cells were cultured in medium alone (white diamonds) or medium supplemented with MPG/p7 at 10^−7 M (black circles), 10^−8 M, (black up triangles), 10^−9 M (black diamonds), and 10^−10 M (black squares). b, As controls, HIV-infected cells were treated with either azidothymidine (AZT: 10^−5 M) (white squares) or peptide MPG/p237 (SEQ ID NO:5) at 10^−6 M (black down triangles). Viral production was monitored by measuring RT activity twice a week post infection. Culture supernatants from virus-free CEM were tested as a control (white circles, FIG. 1b).
(§6) RI activity assay. CEM cells were incubated for 30 mm at 4° C. with 100 μl of stock HIV preparation corresponding to 1000×50% tissue culture infective dose (TCID50)/ml, then cells were washed five times and cultured at 5×10^5 cell/ml in 24-well microplates in the presence or absence of MPG/p7 (at 10^−8 and 10^−7 M) or AZT (AZT was purchased from Boehringer Mannheim, Germany) additive. Viral production was monitored twice a week by measuring reverse transcriptase activity in 1 ml of cell-free supernatant as previously described (39).

[4] = system: HIV-1 BRU, RF, SF2, NDK, ELI (clades B and D); experiment: β-gal activity assay in MAGIC-5 cells, HIV-1 isolates; format: cell-based; details: MAGIC5 cells, β-gal activity day 3, X4 and R5/X4 strains
Protocol: as §1, §2, §3

HIV-1 BRU [5] = experiment: RT activity assay of viral production in HIV-1 BRU-infected CEM cells; format: cell-based
Protocol: as §5, §6

HIV-1 RTMDR1 = experiment: β-gal activity assay in MAGIC-5 cells, HIV-1 RTMDR1; format: cell-based; details: FIG. 3f
Protocol: as §4, §2

[6] = system: HIV-1 RTMF, HIV-1 RTMC, HIV-1 74V, HIV-1 N119 and HIV-1 RTMDR1; experiment: β-gal activity assay in MAGIC-5 cells, anti-RT drug resistant HIV-1 strains; format: cell-based; details: β-gal activity day 3
Protocol: as §4
β-gal activity assay. […] After 3 days in culture, cells were lysed and β-gal activity was determined by incubating 200 μl of total cellular extracts for 1 hat 37° C. in 1.5 ml buffer containing 80 mM NA2HPO4, 10 mM MgCl2, 1 mM 2 ME and 6 mM o-nitrophenyl β-D-galactopyranoside (ONPG). β-gal activity was evaluated by measuring absorbance at 410 nm. […]

Substance | concentrations without any toxicity in CEM cells (CEM cells) | concentration at which all HIV-2 strains tested were susceptible [1] | concentration required to inhibit HIV-1 RTMC relative to other viruses (HIV-1 RTMC; FIG. 3c) | concentration required to completely inhibit HIV-1 RTMC (HIV-1 RTMC; data not shown) | inhibition of HIV-1BRU RT dimerization in vitro (previously shown) [2] | inhibition of HIV-1BRU replication in CEM cell culture (previously shown) (HIV-1 BRU [3]) | delay in HIV-2 replication (HIV-2 ROD; 10^−9 M of MPG/p7, CEM cells) [days] | concentrations that strongly delay HIV-2ROD propagation (HIV-2 ROD; RT activity in supernatant, CEM cells) | concentration at which all HIV-1 strains tested were susceptible [4] | effect on HIV-1BRU replication at 10^−9 M (HIV-1 BRU [5]; 10^−9 M, RT activity at the end of culture (day 17), CEM cells) | delay in HIV-1 replication (HIV-1 BRU [5]; 10^−10 M of MPG/p7, CEM cells) [days] | concentration that abolishes the production of viral particles (HIV-1 BRU [5]; HIV-1 BRU-infected cultured CEM cells) | concentrations that totally inhibit HIV-1BRU replication (HIV-1 BRU [5]; RT activity in cell free supernatant, 17 days of incubation, CEM cells) | concentration required to inhibit HIV-1 RTMDR1 relative to other viruses (HIV-1 RTMDR1) | sensitivity of escape mutant viruses to treatment [6]
KETWETWWTE [p7, KETWETWWTE] | below 10^−5 M |  |  |  |  |  |  |  |  |  |  |  |  |  | 
MPG/p7: non-covalent complex of peptide p7 (SEQ ID NO:1) with carrier peptide MPG (SEQ ID NO:2) (chain 1 KETWETWWTE; chain 2 GALFLGFLGAAGSTMGAWSQPKSKRKV; also: non-covalent complex of p7 with carrier MPG) |  | 10^−8 M | higher than that required to block the other viruses | 10^−6 M | inhibit | inhibit | 3 | above 10^−7 M | 10^−8 M | very slow virus propagation | 3 | 10^−8 M | above 10^−8 M | higher than that required to block the other viruses | sensitive
